Measurements taken from ChEMBL document CHEMBL5465560, “Selectivity Literature for EUbOPEN Chemogenomic Library” (2024).
Residue numbers refer to the chain shown, from its start.

What was measured:
[1] = target: T1, Cyclin-dependent kinase 11A (Homo sapiens) (UniProt Q9UQ88); assay: Selectivity interaction (KinomeScan (DiscoverX)) EUB0000655a CDK11A; conditions: at 10 µM
T1 sequence (whole entry): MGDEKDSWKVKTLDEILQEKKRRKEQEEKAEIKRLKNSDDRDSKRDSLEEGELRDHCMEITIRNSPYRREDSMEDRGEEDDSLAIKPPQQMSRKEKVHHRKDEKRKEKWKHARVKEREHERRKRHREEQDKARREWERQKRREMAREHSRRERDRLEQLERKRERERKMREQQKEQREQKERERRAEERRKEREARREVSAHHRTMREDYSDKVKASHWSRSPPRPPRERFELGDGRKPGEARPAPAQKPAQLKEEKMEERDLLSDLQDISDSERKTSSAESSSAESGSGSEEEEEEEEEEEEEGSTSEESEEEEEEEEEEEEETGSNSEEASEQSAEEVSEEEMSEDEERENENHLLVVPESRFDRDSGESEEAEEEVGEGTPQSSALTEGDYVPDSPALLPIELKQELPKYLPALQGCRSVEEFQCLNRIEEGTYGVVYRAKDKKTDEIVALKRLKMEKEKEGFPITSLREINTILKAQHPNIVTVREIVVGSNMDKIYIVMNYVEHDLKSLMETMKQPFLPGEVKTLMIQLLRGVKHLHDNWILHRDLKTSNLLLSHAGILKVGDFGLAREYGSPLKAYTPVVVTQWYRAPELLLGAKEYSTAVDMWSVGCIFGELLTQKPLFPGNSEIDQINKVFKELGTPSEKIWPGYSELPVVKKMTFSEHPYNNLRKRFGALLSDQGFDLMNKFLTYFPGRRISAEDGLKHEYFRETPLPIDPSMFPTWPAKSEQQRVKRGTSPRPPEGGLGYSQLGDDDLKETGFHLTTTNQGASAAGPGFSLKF

[2] = test system: T2, Receptor-type tyrosine-protein kinase FLT3 (Homo sapiens), P36888 [D835H]; assay: (§1) Selectivity interaction (KinomeScan (DiscoverX)) EUB0001049a FLT3; conditions: at 1 µM
T2 sequence (whole entry): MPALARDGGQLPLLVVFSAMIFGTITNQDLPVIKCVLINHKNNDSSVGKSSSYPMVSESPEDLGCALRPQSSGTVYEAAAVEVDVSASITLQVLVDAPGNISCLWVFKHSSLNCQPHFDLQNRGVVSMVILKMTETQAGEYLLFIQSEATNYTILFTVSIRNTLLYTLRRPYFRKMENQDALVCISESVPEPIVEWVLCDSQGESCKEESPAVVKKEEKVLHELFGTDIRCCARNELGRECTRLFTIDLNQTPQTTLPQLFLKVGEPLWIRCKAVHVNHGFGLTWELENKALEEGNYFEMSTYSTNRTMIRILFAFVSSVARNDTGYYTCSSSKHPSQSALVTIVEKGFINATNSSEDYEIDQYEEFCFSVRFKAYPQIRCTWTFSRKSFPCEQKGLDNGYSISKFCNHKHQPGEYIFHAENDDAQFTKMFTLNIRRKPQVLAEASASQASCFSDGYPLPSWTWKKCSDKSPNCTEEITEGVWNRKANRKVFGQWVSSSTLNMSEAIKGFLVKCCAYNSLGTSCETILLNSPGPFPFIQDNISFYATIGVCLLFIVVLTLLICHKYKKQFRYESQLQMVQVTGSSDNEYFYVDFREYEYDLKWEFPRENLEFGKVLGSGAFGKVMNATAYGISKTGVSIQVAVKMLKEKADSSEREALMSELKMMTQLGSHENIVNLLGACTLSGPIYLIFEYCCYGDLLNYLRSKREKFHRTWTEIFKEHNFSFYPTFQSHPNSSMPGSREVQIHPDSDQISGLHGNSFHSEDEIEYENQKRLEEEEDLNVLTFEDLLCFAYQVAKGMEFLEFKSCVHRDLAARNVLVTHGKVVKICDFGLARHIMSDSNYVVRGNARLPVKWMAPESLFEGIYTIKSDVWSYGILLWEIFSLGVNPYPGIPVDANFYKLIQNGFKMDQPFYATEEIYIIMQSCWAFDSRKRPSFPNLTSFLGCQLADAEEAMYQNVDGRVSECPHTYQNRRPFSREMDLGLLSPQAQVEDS

[3] = target: Receptor-type tyrosine-protein kinase FLT3 (Homo sapiens) (UniProt P36888); assay: as §1; conditions: at 1 µM
[4] = test system: T3, Receptor-type tyrosine-protein kinase FLT3 (Homo sapiens), P36888 [N841I]; assay: as §1; conditions: at 1 µM
T3 sequence (whole entry): T2 sequence (whole entry) with H835D, N841I

SMILES | % of control [1] | % of control [2] | % of control [3] | % of control [4]
CN(C)CCOc1ccc(-c2nc(-c3ccncc3)c(-c3ccc4c(c3)CC/C4=N\O)[nH]2)cc1 | 86% | – | – | –
COc1cc(Nc2nc(C)cc(-c3cnn4nc(OC)ccc34)n2)cc(C(F)(F)F)c1 | – | 93% | 100% | 100%
